Assay results published in patent publication US11802120B2, “Fused cyclic urea derivatives as CRHR2 antagonist” (RaQualia Pharma Inc., priority 2018, dated 2023).

Biological target: T1, human CRHR2-alpha (Homo sapiens, UniProt Q13324)
T1 sequence (Q13324 1-411): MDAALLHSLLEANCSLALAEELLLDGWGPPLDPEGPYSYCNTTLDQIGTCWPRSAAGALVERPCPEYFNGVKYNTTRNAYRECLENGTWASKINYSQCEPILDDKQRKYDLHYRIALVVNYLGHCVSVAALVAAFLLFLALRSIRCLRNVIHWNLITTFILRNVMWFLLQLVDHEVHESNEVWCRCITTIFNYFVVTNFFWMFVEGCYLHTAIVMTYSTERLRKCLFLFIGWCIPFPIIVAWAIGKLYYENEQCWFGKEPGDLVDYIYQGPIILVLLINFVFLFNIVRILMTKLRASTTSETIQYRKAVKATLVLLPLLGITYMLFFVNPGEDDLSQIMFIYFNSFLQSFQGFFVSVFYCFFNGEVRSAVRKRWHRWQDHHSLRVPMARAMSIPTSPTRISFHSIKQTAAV
Test: cAMP functional assay for human CRHR2 (LANCE Ultra cAMP, TR-FRET)
Format: cell-based
Conditions: CHO-K1 cells expressing human CRHR2-alpha, agonist human urocortin2 at EC80, cAMP; read-out: IC50 against CRHR2
Procedure, shortened: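 IC50 values derive from percent inhibition of EC80 agonist-stimulated cAMP in CHO-K1 transfectants, with 0.5 mM IBMX present; the CRHR2 line was stimulated by human urocortin2 and the CRHR1 line by CRF.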

| IC50 [nM] | Compound |
| --- | --- |
| < 300 | CNc1ncc(-n2c(=O)n(C[C@H]3CC[C@H](NC(=O)c4cc(Cl)cnc4C(F)(F)F)CC3)c3ccccc32)cc1C [Example 544, 5-chloro-N-((1r,4r)-4-((3-(5-methyl-6-(methylamino)pyridin-3-yl)-2-oxo-2,3-dihydro-1H-benzo[d]imidazol-1-yl)methyl)cyclo-hexyl)-2-(trifluoromethyl) nicotinamide] |
| < 300 | Cn1ccc(-c2cc(-n3c(=O)n(C[C@H]4CC[C@H](NC(=O)c5cc(Cl)cnc5C(F)F)CC4)c4ccccc43)ccn2)n1 [Example 702, 5-chloro-2-(difluoromethyl)-N-((1r,4r)-4-((3-(2-(1-methyl-1H-pyrazol-3-yl)pyridin-4-yl)-2-oxo-2,3-dihydro-1H-benzo[d]imidazol-1-yl)methyl)cyclohexyl)nicotinamide] |
| < 300 | Cc1ccc(-n2c(=O)n(C[C@H]3CC[C@H](NC(=O)c4cc(Cl)cnc4C(F)F)CC3)c3ccccc32)c(C)n1 [Example 376, 5-chloro-2-(difluoromethyl)-N-((1r,4r)-4-((3-(2,6-dimethyl-pyridin-3-yl)-2-oxo-2,3-dihydro-1H-benzo[d]imidazol-1-yl)methyl)cyclohexyl) nicotinamide] |
| < 300 | O=C(N[C@H]1CC[C@H](Cn2c(=O)n(-c3ccccc3Cl)c3ncccc32)CC1)c1cc(Cl)cnc1C(F)(F)F [Example 288, 5-chloro-N-((1r,4r)-4-((3-(2-chlorophenyl)-2-oxo-2,3-dihydro-1H-imidazo[4,5-b]pyridin-1-yl)methyl)cyclo-hexyl)-2-(trifluoromethyl) nicotinamide] |
| < 300 | CN1CCN(c2ccc(-n3c(=O)n(C[C@H]4CC[C@H](NC(=O)c5cc(Cl)cnc5C(F)F)CC4)c4ccccc43)cn2)C1=O [Example 524, 5-chloro-2-(difluoromethyl)-N-((1r,4r)-4-((3-(6-(3-methyl-2-oxoimidazolidin-1-yl)pyridin-3-yl)-2-oxo-2,3-dihydro-1H-benzo[d]imidazol-1-yl)methyl)cyclohexyl) nicotinamide] |
| < 300 | Cc1ncc(Cl)cc1C(=O)N[C@H]1CC[C@H](Cn2c(=O)n(-c3ccc(C(=O)Nc4cccnc4)nc3)c3ccccc32)CC1 [Example 177, 5-(3-(((1r,4r)-4-(5-chloro-2-methylnicotinamido)cyclo-hexyl)methyl)-2-oxo-2,3-dihydro-1H-benzo[d]imidazol-1-yl)-N-(pyridin-3-yl) picolinamide] |
| < 300 | Cc1ncc(Cl)cc1C(=O)N[C@H]1CC[C@H](Cn2c(=O)n(-c3ccc4c(c3)cc(C(=O)N(C)C)n4C)c3ccccc32)CC1 [Example 405, 5-(3-(((1r,4r)-4-(5-chloro-2-methylnicotinamido)cyclo-hexyl)methyl)-2-oxo-2,3-dihydro-1H-benzo[d]imidazol-1-yl)-N,N,1-trimethyl-1H-indole-2-carboxamide] |
| < 300 | Cc1ncc(Cl)cc1C(=O)N[C@H]1CC[C@H](Cn2c(=O)n(-c3cccc4cnccc34)c3ccccc32)CC1 [Example 343, 5-chloro-N-((1r,4r)-4-((3-(isoquinolin-5-yl)-2-oxo-2,3-dihydro-1H-benzo[d]imidazol-1-yl)methyl)cyclo-hexyl)-2-methylnicotinamide] |
| < 300 | CCn1nc2ccccc2c1C(=O)N[C@H]1CC[C@H](Cn2c(=O)n(-c3ccc(C(C)O)cc3)c3ccccc32)CC1 (stereo partly drawn) [Example 42, 2-ethyl-N-((1r,4r)-4-((3-(4-(1-hydroxyethyl)phenyl)-2-oxo-2,3-dihydro-1H-benzo[d]imidazol-1-yl)methyl)cyclohexyl)-2H-indazole-3-carboxamide] |
| < 300 | Cc1ncc(Cl)cc1C(=O)N[C@H]1CC[C@H](Cn2c(=O)n(-c3ccc(-c4ccn[nH]4)cc3)c3ccccc32)CC1 [Example 469, N-((1r,4r)-4-((3-(4-(1H-pyrazol-5-yl)phenyl)-2-oxo-2,3-dihydro-1H-benzo[d]imidazol-1-yl)methyl)cyclo-hexyl)-5-chloro-2-methylnicotinamide] |

Second part, the compound before the results:

| Compound | IC50 [nM] |
| --- | --- |
| CNC(=O)c1ccc(-n2c(=O)n(C[C@H]3CC[C@H](NC(=O)c4cc(C(F)(F)F)ccc4Cl)CC3)c3ccccc32)cn1 [Example 490, 5-(3-(((1r,4r)-4-(2-chloro-5-(trifluoromethyl)benza-mido)cyclohexyl)methyl)-2-oxo-2,3-dihydro-1H-benzo[d]imidazol-1-yl)-N-methylpicolinamide] | < 300 |
| CNC(=O)c1ccc(-n2c(=O)n(C[C@H]3CC[C@H](NC(=O)c4cc(Cl)cnc4N)CC3)c3ccccc32)cn1 [Example 534, 5-(3-(((1r,4r)-4-(2-amino-5-chloronicotinamido)cyclo-hexyl)methyl)-2-oxo-2,3-dihydro-1H-benzo[d]imidazol-1-yl)-N-methylpicolinamide] | < 300 |
| CNc1cnc(-n2c(=O)n(C[C@H]3CC[C@H](NC(=O)c4cc(Cl)cnc4C(F)F)CC3)c3ccccc32)cn1 [Example 391, 5-chloro-2-(difluoromethyl)-N-((1r,4r)-4-((3-(5-(methyl-amino)pyrazin-2-yl)-2-oxo-2,3-dihydro-1H-benzo[d]imidazol-1-yl)methyl)cyclohexyl) nicotinamide] | < 300 |
| Cc1ncc(Cl)cc1C(=O)N[C@H]1CC[C@H](Cn2c(=O)n(-c3ccc(-n4cccn4)nc3)c3ccccc32)CC1 [Example 637, N-((1r,4r)-4-((3-(6-(1H-pyrazol-1-yl)pyridin-3-yl)-2-oxo-2,3-dihydro-1H-benzo[d]imidazol-1-yl)methyl)cyclohexyl)-5-chloro-2-methylnicotinamide] | < 300 |
| COc1ccc(-n2c(=O)n(C[C@H]3CC[C@H](NC(=O)c4cc(Br)cnc4C)CC3)c3ccccc32)cn1 [Example 227, 5-bromo-N-((1r,4r)-4-((3-(6-methoxypyridin-3-yl)-2-oxo-2,3-dihydro-1H-benzo[d]imidazol-1-yl)methyl)cyclo-hexyl)-2-methylnicotinamide] | < 300 |
| Cc1ncc(Cl)cc1C(=O)N[C@H]1CC[C@H](Cn2c(=O)n(-c3ccc4[nH]nc(Cl)c4c3)c3ccccc32)CC1 [Example 222, 5-chloro-N-((1r,4r)-4-((3-(3-chloro-1H-indazol-5-yl)-2-oxo-2,3-dihydro-1H-benzo[d]imidazol-1-yl)methyl)cyclohexyl)-2-methylnicotinamide] | < 300 |
| Cc1ncc(Cl)cc1C(=O)N[C@H]1CC[C@H](Cn2c(=O)n(-c3ccc4c(c3)oc(=O)n4CC3CC3)c3ccccc32)CC1 [Example 195, 5-chloro-N-((1r,4r)-4-((3-(3-(cyclopropylmethyl)-2-oxo-2,3-dihydrobenzo[d]oxazol-6-yl)-2-oxo-2,3-dihydro-1H-benzo[d]imidazol-1-yl)methyl)cyclohexyl)-2-methylnicotinamide] | < 300 |
| Cc1ncc(Cl)cc1C(=O)N[C@H]1CC[C@H](Cn2c(=O)n(-c3ccc(-c4cnco4)cn3)c3ccccc32)CC1 [Example 489, 5-chloro-2-methyl-N-((1r,4r)-4-((3-(5-(oxazol-5-yl)pyridin-2-yl)-2-oxo-2,3-dihydro-1H-benzo[d]imidazol-1-yl)methyl)cyclohexyl)nicotinamide] | < 300 |
| C[C@@H](O)COc1ccc(-n2c(=O)n(C[C@H]3CC[C@H](NC(=O)c4cc(Cl)cnc4C(F)F)CC3)c3ccccc32)cn1 [Example 439, 5-chloro-2-(difluoromethyl)-N-((1R,4r)-4-((3-(6-((R)-2-hydroxypropoxy)pyridin-3-yl)-2-oxo-2,3-dihydro-1H-benzo[d]imidazol-1-yl)methyl)cyclohexyl)nicotinamide] | < 300 |
| Cc1ncc(Cl)cc1C(=O)N[C@H]1CC[C@H](Cn2c(=O)n(-c3ccc4c(C(=O)N(C)C)noc4c3)c3ccccc32)CC1 [Example 245, 6-(3-(((1r,4r)-4-(5-chloro-2-methylnicotinamido)cyclohexyl)methyl)-2-oxo-2,3-dihydro-1H-benzol[d]imidazol-1-yl)-N,N-dimethylbenzo[d]isoxazole-3-carboxamide] | < 300 |
| Cc1ccc(-n2c(=O)n(C[C@H]3CC[C@H](NC(=O)c4cc(Cl)cnc4C(F)F)CC3)c3cccnc32)cc1 [Example 389, 5-chloro-2-(difluoromethyl)-N-((1r,4r)-4-((2-oxo-3-(p-tolyl)-2,3-dihydro-1H-imidazo[4,5-b]pyridin-1-yl)methyl)cyclohexyl)nicotinamide] | < 300 |
| COc1ccc(-n2c(=O)n(C[C@H]3CC[C@H](NC(=O)c4c5ccccc5nn4C)CC3)c3ccccc32)cn1 [Example 220, N-((1r,4r)-4-((3-(6-methoxy-pyridin-3-yl)-2-oxo-2,3-dihydro-1H-benzo[d]imidazol-1-yl)methyl)cyclohexyl)-2-methyl-2H-indazole-3-carboxamide] | < 300 |
| Cc1cc(N2CCNC2=O)ncc1-n1c(=O)n(C[C@H]2CC[C@H](NC(=O)c3cc(Cl)cnc3C(F)F)CC2)c2ccccc21 [Example 558, 5-chloro-2-(difluoromethyl)-N-((1r,4r)-4-((3-(4-methyl-6-(2-oxoimidazolidin-1-yl)pyridin-3-yl)-2-oxo-2,3-dihydro-1H-benzo[d]imidazol-1-yl)methyl)cyclohexyl) nicotinamide] | < 300 |
| CNC(=O)c1ccc(-n2c(=O)n(C[C@H]3CC[C@H](NC(=O)c4cc(Cl)cnc4CF)CC3)c3ccccc32)cn1 [Example 582, 5-(3-(((1r,4r)-4-(5-chloro-2-(fluoromethyl)nicotina-mido)cyclohexyl)methyl)-2-oxo-2,3-dihydro-1H-benzo[d]imidazol-1-yl)-N-methylpicolinamide] | < 300 |
